# Assay results as given in PMC4578888, “The Validation of Nematode-Specific Acetylcholine-Gated Chloride Channels as Potential Anthelmintic Drug Targets” (PLoS ONE, 2015).
# Molecular target: T1, AVR-15 (glutamate-gated chloride channel subunit) (Caenorhabditis elegans, UniProt O17548)
# T1 construct: homomeric AVR-15, untagged and with a fluorescent protein tag in the intracellular loop, expressed in Xenopus laevis oocytes
# T1 sequence (O17548 21-478): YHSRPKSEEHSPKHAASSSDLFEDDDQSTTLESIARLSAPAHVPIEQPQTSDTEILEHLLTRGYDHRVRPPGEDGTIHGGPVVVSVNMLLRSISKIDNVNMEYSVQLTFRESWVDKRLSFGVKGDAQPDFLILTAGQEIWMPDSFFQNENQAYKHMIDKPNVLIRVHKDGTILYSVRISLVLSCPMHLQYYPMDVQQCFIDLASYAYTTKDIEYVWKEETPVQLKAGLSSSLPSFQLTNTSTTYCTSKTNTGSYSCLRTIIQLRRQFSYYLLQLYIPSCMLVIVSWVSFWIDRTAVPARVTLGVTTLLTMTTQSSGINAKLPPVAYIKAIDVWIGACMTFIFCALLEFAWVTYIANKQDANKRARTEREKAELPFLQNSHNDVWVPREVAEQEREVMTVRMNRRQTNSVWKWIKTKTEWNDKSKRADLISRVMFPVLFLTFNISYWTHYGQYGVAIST
# Assay: two-electrode voltage clamp in Xenopus oocytes, dose–response curve
# Type: cell-based
structure (smiles),measurement,value
N[C@@H](CCC(=O)O)C(=O)O [glutamate],"two-electrode voltage clamp in Xenopus oocytes, dose-response curve",Dose–response curve with the normalized maximal response on the y-axis plotted against the glutamate concentration
